pEC50: −log10 of the molar value. ≈ marks a conversion by molar mass, not a printed value. Residues, ends and D or L forms follow the SMILES beside them.

For one series, the target named is T1, human NMUR1 receptor (Homo sapiens, UniProt Q9HB89).
T1 construct: expressed in transfected cells; host or cells: CHO-K1
T1 sequence (Q9HB89 1-426): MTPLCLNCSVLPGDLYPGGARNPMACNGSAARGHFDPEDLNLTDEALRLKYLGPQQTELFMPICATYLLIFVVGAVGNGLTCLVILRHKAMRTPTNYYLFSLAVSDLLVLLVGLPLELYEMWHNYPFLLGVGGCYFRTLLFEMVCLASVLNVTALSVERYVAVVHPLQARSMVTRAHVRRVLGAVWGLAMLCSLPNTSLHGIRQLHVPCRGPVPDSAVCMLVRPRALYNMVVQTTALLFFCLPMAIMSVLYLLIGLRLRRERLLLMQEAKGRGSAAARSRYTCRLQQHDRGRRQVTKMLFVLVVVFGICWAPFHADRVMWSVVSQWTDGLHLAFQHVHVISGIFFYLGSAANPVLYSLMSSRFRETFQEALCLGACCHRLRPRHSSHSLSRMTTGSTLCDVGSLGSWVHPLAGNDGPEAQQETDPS
As to the kind of experiment: IP1 Gq HTRF assay, activation of human NMUR1 in buffer. In kind it is cell-based. As to conditions: CHO-K1 cells expressing human NMUR1, stimulation buffer with 0.1% BSA; read-out: EC50 (hNMUR1) buffer. An outline of the steps: (§1)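 IP-One HTRF competition (665/620 nm ratio) read after 1 h agonist exposure at 37 °C in pH 7.4 HEPES/HBSS stimulation buffer containing 50 mM LiCl, 0.1% BSA, 1% DMSO. Cells: CHO-K1 stably expressing human NMUR2 or NMUR1. EC50 by 4-parameter nonlinear regression of 8-point curves.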
For orientation: TR-FRET usually uses a lanthanide donor and a delayed reading to cut background.

Series [1] addresses T2, human NMUR2 receptor (Homo sapiens, UniProt Q9GZQ4). As to the kind of experiment: IP1 Gq HTRF assay, activation of human NMUR2 in buffer. Type of series: cell-based. On the set-up: expressed in transfected cells; host or cells: CHO-K1. As to conditions: CHO-K1 cells expressing human NMUR2, stimulation buffer with 0.1% BSA; read-out: EC50 (hNMUR2) buffer. Summed up:
as §1

The target of series [2] is T2, human NMUR2 receptor. The series is described as follows: IP1 Gq HTRF assay, activation of human NMUR2 in human plasma. Set-up: expressed in transfected cells; host or cells: CHO-K1. In kind it is cell-based. The conditions noted are these: CHO-K1 cells expressing human NMUR2, 100% human plasma; read-out: EC50 (hNMUR2) human plasma. An outline of the steps: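 EC50 obtained via 4-parameter sigmoidal regression of HTRF IP-One signal (665 nm/620 nm), which falls as intracellular IP1 rises. Stimulation: 1 h, 37° C, peptides in human plasma plus 50 mM LiCl, 1% DMSO final, on NMUR2-expressing CHO-K1 cells, 8 concentrations.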

Another series is described as follows: physchem. Type of series: physicochemical. As for the experimental part:
Example 6: Solubility Determination
Peptides (as TFA-salts) were weighed out in a filter unit (Mini-UniPrep Syringeless Filter 0.45 μm, Whatman PVDF), and 0.1 M phosphate buffer at pH 6 to 8 was added to achieve 10 mg/mL final peptide concentration. The peptides were dissolved by shaking the filter units horizontally at 350 rpm for 2 hours at room temperature. Samples were then filtered to remove any insoluble particles. Controls were prepared by weighing out the corresponding peptide solid material and dissolving it in an appropriate vehicle (e.g. buffer or DMSO) to a final concentration of 1 mg/mL. Both, the control and sample were analyzed by reversed phase chromatography. The area under the peak of the sample was compared to the control and the solubility was calculated based on that ratio. The pH was measured and recorded for each sample.

T2 sequence (Q9GZQ4 whole entry): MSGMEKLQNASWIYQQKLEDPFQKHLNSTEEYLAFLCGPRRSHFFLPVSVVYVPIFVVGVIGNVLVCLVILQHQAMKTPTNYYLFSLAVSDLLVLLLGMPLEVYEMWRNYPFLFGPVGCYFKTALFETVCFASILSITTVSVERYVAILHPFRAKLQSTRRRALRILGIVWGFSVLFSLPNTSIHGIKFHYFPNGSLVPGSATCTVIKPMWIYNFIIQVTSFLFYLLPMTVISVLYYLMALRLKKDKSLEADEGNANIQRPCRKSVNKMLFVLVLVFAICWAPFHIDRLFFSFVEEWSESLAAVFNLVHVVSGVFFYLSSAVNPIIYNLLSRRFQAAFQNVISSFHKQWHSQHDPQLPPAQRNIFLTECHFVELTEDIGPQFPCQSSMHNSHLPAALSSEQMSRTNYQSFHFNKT

The pEC50 is the EC50 on a negative log10 scale, so that one unit is a factor of ten. On to `CCCC[C@H](NC(=O)[C@H](CC(C)C)N(C)C(=O)[C@H](Cc1ccccc1)NC(=O)[C@H](Cc1ccc(O)cc1)NC(=O)CN1CCN(CCNC(=O)CN(C)C(=O)CN(C)C(=O)CN(C)C(=O)CN(C)C(=O)CN(C)C(=O)CN(C)C(=O)CN(C)C(=O)CN(C)C(=O)CN(C)C(=O)CN(C)C(=O)CN(C)C(=O)CN(C)C(=O)CC[C@H](NC(=O)CC[C@H](NC(=O)CC[C@H](NC(=O)CCCCCCCCCCCCCCCCC(=O)O)C(=O)O)C(=O)O)C(=O)O)CC1)C(=O)N[C@@H](CCCNC(=N)N)C(=O)N(C)[C@@H](C)C(=O)N[C@@H](CCCNC(=N)N)C(=O)NCC(N)=O` [Compound 12, C18DA-gGlu3-Sar12-AEPipAc-Tyr-Phe-NMeLeu-Nle-Arg-NMeAla-Arg-Gly-NH2], for which the figures for the pEC50 on human NMUR1 receptor, at human NMUR2 receptor [1] and at human NMUR2 receptor [2] were 6.00, 8.57 and 7.89, respectively.

The term solubility denotes the concentration that dissolves in the medium under given conditions. For the molecule `CCCC[C@H](NC(=O)[C@H](CC(C)C)N(C)C(=O)[C@H](Cc1ccccc1)NC(=O)[C@H](Cc1ccc(O)cc1)NC(=O)CN1CCN(CCNC(=O)CN(C)C(=O)CN(C)C(=O)CN(C)C(=O)CN(C)C(=O)CN(C)C(=O)CN(C)C(=O)CN(C)C(=O)CN(C)C(=O)CN(C)C(=O)CN(C)C(=O)CN(C)C(=O)CN(C)C(=O)CC[C@H](NC(=O)CC[C@H](NC(=O)CC[C@H](NC(=O)CCCCCCCCCCCCCCCCCCC(=O)O)C(=O)O)C(=O)O)C(=O)O)CC1)C(=O)N[C@@H](CCN)C(=O)N1CCC[C@H]1C(=O)N[C@@H](CCCNC(=N)N)C(=O)NCC(N)=O` [Compound 8, C20DA-gGlu3-Sar12-AEPipAc-Tyr-Phe-NMeLeu-Nle-Dbu-Pro-Arg-Gly-NH2], the results for the pEC50 on human NMUR1 receptor, at human NMUR2 receptor [1] and at human NMUR2 receptor [2] were 6.00, 8.51 and 8.05, respectively. This molecule also displayed a solubility at 2 h in “physchem” (pH 7.3) of 1900 µg/mL (≈ 701 µM).

On to `CCCC[C@H](NC(=O)[C@H](CC(C)C)N(C)C(=O)[C@H](Cc1ccccc1)NC(=O)[C@H](Cc1ccc(O)cc1)NC(=O)CN1CCN(CCNC(=O)CN(C)C(=O)CN(C)C(=O)CN(C)C(=O)CN(C)C(=O)CN(C)C(=O)CN(C)C(=O)CN(C)C(=O)CN(C)C(=O)CN(C)C(=O)CN(C)C(=O)CN(C)C(=O)CN(C)C(=O)CC[C@H](NC(=O)CC[C@H](NC(=O)CC[C@H](NC(=O)CCCCCCCCCCCCCCCCC(=O)O)C(=O)O)C(=O)O)C(=O)O)CC1)C(=O)N[C@@H](CCCNC(=N)N)C(=O)N1CCC[C@H]1C(=O)N[C@@H](CCCNC(=N)N)C(=O)NCC(N)=O` [Compound 25, C18DA-gGlu3-Sar12-AEPipAc-Tyr-Phe-NMeLeu-Nle-Arg-Pro-Arg-Gly-NH2], for which the pEC50 on human NMUR1 receptor is 6.70; at human NMUR2 receptor [1] it was 8.96; on human NMUR2 receptor [2], 8.07. In the series “physchem” (pH 7.2), this molecule yielded a solubility at 2 h of 10000 µg/mL (≈ 3650 µM).

As for `CCCC[C@H](NC(=O)[C@H](CC(C)C)N(C)C(=O)[C@H](Cc1ccccc1)NC(=O)[C@H](Cc1ccc(O)cc1)NC(=O)CN1CCN(CCNC(=O)CN(C)C(=O)CN(C)C(=O)CN(C)C(=O)CN(C)C(=O)CN(C)C(=O)CN(C)C(=O)CN(C)C(=O)CN(C)C(=O)CN(C)C(=O)CC[C@H](NC(=O)CC[C@H](NC(=O)CC[C@H](NC(=O)CCCCCCCCCCCCCCCCCCC(=O)O)C(=O)O)C(=O)O)C(=O)O)CC1)C(=O)N[C@@H](CCCNC(=N)N)C(=O)N1CCC[C@H]1C(=O)N[C@@H](CCCNC(=N)N)C(=O)NCC(N)=O` [Compound 65, C20DA-gGlu3-Sar9-AEPipAc-Tyr-Phe-NMeLeu-Nle-Arg-Pro-Arg-Gly-NH2] (HELM PEPTIDE1{[O=C(O)CCCCCCCCCCCCCCCCCCC(=O)[*:2]].[gGlu].[gGlu].[gGlu].[Sar].[Sar].[Sar].[Sar].[Sar].[Sar].[Sar].[Sar].[Sar].[O=C(CN1CCN(CCN[*:1])CC1)[*:2]].Y.F.[meL].[Nle].R.P.R.G.[am]}$$$$V2.0), the values for the pEC50 on human NMUR1 receptor, on human NMUR2 receptor [1] and on human NMUR2 receptor [2] were 6.89, 8.55 and 7.93, respectively.

For the molecule `CCCC[C@H](NC(=O)[C@H](CC(C)C)N(C)C(=O)[C@H](Cc1ccccc1)NC(=O)[C@H](Cc1ccc(O)cc1)NC(=O)CN1CCN(CCNC(=O)CN(C)C(=O)CN(C)C(=O)CN(C)C(=O)CN(C)C(=O)CN(C)C(=O)CN(C)C(=O)CN(C)C(=O)CN(C)C(=O)CN(C)C(=O)CN(C)C(=O)CN(C)C(=O)CN(C)C(=O)CN(C)C(=O)CN(C)C(=O)CN(C)C(=O)CC[C@H](NC(=O)CC[C@H](NC(=O)CC[C@H](NC(=O)CCCCCCCCCCCCCCCCCCC(=O)O)C(=O)O)C(=O)O)C(=O)O)CC1)C(=O)N[C@@H](CCCNC(=N)N)C(=O)N1CCC[C@H]1C(=O)N[C@@H](CCCNC(=N)N)C(=O)NCC(N)=O` [Compound 9, C20DA-gGlu3-Sar15-AEPipAc-Tyr-Phe-NMeLeu-Nle-Arg-Pro-Arg-Gly-NH2] (HELM PEPTIDE1{[O=C(O)CCCCCCCCCCCCCCCCCCC(=O)[*:2]].[gGlu].[gGlu].[gGlu].[Sar].[Sar].[Sar].[Sar].[Sar].[Sar].[Sar].[Sar].[Sar].[Sar].[Sar].[Sar].[Sar].[Sar].[Sar].[O=C(CN1CCN(CCN[*:1])CC1)[*:2]].Y.F.[meL].[Nle].R.P.R.G.[am]}$$$$V2.0), the pEC50 on human NMUR1 receptor is 6.66; at human NMUR2 receptor [1], 8.55; on human NMUR2 receptor [2], 8.24.

For `CCCC[C@H](NC(=O)[C@H](CC(C)C)N(C)C(=O)[C@H](Cc1ccccc1)NC(=O)[C@H](Cc1ccc(O)cc1)NC(=O)CN1CCN(CCNC(=O)CN(C)C(=O)CN(C)C(=O)CN(C)C(=O)CN(C)C(=O)CN(C)C(=O)CN(C)C(=O)CN(C)C(=O)CN(C)C(=O)CN(C)C(=O)CN(C)C(=O)CN(C)C(=O)CN(C)C(=O)CN(C)C(=O)CN(C)C(=O)CN(C)C(=O)CC[C@H](NC(=O)CC[C@H](NC(=O)CC[C@H](NC(=O)CCCCCCCCCCCCCCCCC(=O)O)C(=O)O)C(=O)O)C(=O)O)CC1)C(=O)N[C@@H](CCCNC(=N)N)C(=O)N(C)[C@@H](C)C(=O)N[C@@H](CCCNC(=N)N)C(=O)NCC(N)=O` [Compound 11, C18DA-gGlu3-Sar15-AEPipAc-Tyr-Phe-NMeLeu-Nle-Arg-NMeAla-Arg-Gly-NH2] (HELM PEPTIDE1{[O=C(O)CCCCCCCCCCCCCCCCC(=O)[*:2]].[gGlu].[gGlu].[gGlu].[Sar].[Sar].[Sar].[Sar].[Sar].[Sar].[Sar].[Sar].[Sar].[Sar].[Sar].[Sar].[Sar].[Sar].[Sar].[O=C(CN1CCN(CCN[*:1])CC1)[*:2]].Y.F.[meL].[Nle].R.[meA].R.G.[am]}$$$$V2.0), the pEC50 was 5.96 at human NMUR1 receptor, 8.55 at human NMUR2 receptor [1] and 7.97 on human NMUR2 receptor [2].

On to `CCCC[C@H](NC(=O)[C@H](CC(C)C)N(C)C(=O)[C@H](Cc1ccccc1)NC(=O)[C@H](Cc1ccc(O)cc1)NC(=O)CN1CCN(CCNC(=O)CN(C)C(=O)CN(C)C(=O)CN(C)C(=O)CN(C)C(=O)CN(C)C(=O)CN(C)C(=O)CN(C)C(=O)CN(C)C(=O)CN(C)C(=O)CN(C)C(=O)CN(C)C(=O)CN(C)C(=O)CN(C)C(=O)CN(C)C(=O)CN(C)C(=O)CC[C@H](NC(=O)CC[C@H](NC(=O)CC[C@H](NC(=O)CCCCCCCCCCCCCCCCCCC(=O)O)C(=O)O)C(=O)O)C(=O)O)CC1)C(=O)N[C@@H](CCCNC(=N)N)C(=O)N(C)[C@@H](C)C(=O)N[C@@H](CCCNC(=N)N)C(=O)NCC(N)=O` [Compound 10, C20DA-gGlu3-Sar15-AEPipAc-Tyr-Phe-NMeLeu-Nle-Arg-NMeAla-Arg-Gly-NH2] (HELM PEPTIDE1{[O=C(O)CCCCCCCCCCCCCCCCCCC(=O)[*:2]].[gGlu].[gGlu].[gGlu].[Sar].[Sar].[Sar].[Sar].[Sar].[Sar].[Sar].[Sar].[Sar].[Sar].[Sar].[Sar].[Sar].[Sar].[Sar].[O=C(CN1CCN(CCN[*:1])CC1)[*:2]].Y.F.[meL].[Nle].R.[meA].R.G.[am]}$$$$V2.0), for which the results for the pEC50 on human NMUR1 receptor, on human NMUR2 receptor [1] and at human NMUR2 receptor [2] were 6.14, 8.39 and 8.01, respectively.

Values taken from patent publication US20240279278A1, “NMU RECEPTOR 2 AGONISTS” (Boehringer Ingelheim International GmbH, priority 2023, published 2024).
